Experimental data published in patent publication US20060167098A1, “Method for the treatment of diseases linked to an accumulation of triglycerides and cholesterol” (Institut National De La Sante ET De LA Recherche Medicale …, priority 2003, published 2006).

Tests used:
Assay type in all cases: in vivo
[1] = Plasma lipids in lean mice fed with a standard diet, 6 weeks, not fasted; conditions: 100 mg/kg/day 6 weeks
Procedure: Plasma lipids (triglycerides, total cholesterol, phospholipids) were measured on an automatic analyser (Hitachi 717®). The commercial kits used to assess triglycerides, total cholesterol and phospholipids on this analyser were all from bioMérieux (references 61238, 61219 and 61491, respectively). Plasma non esterified fatty acids (NEFA) were assessed by using a commercial kit (Wako, reference 994-75409). Hepatic and plasma lipids were performed at the end of six weeks of treatment in animals that have been fasted for 48 hours. Triglycerides and HDL-cholesterol were also assessed after 2 months (in the fed state) or after 4 months of treatment (after an overnight fast).
Plasma lipids were assessed in lean mice fed with a standard diet and receiving or not of 100 mg/kg/day of β-aminoisobutyric acid (BAIBA) in the drinking water during 6 weeks. There were six animals per group. At the end of the 6 weeks of treatment, mice were not fasted and samples of blood were then collected for the assessment of plasma triglycerides and total cholesterol. […] Indeed, plasma triglycerides were 3.18±0.23 and 2.95±0.21 mmol/L, respectively in control and treated mice whereas plasma total cholesterol was 5.35±0.35 and 5.23±0.28 mmol/L, respectively in control and treated mice.

[2] = Body fat mass by DEXA in Swiss (lean) mice, standard diet, fasted 48 hours before measurement; conditions: for decrease of body fat mass: 100 mg/kg/day in drinking water, vs control; for decrease of body fat mass / body fat mass: fasted 48 h; for body fat mass: mean±SEM
Description: Six to 8 weeks old male (Crl:CD-1(ICR)BR) Swiss mice, and six to ten weeks old male RjOrl Swiss mice (i.e. lean mice) weighing 28 and 32 grams were purchased from Dépré (Saint Doulchard, France). Ten to 12 weeks old ob/ob male (C57BL/6-ob) mice (i.e. obese mice), weighing 40 to 44 grams were purchased from Janvier (Le-Genest-St-Isle, France). In one experiment, younger ob/ob mice (5-6 weeks old) weighing 25-26 grams were also studied. In genetically obese ob/ob mice, a mutation on the gene of leptin prevents the normal production of this hormone, thus increasing appetite and decreasing energy consumption (Friedman J. M., Halaas J. L., 1998, Nature 395 : 763-770). […] The animals were acclimatized for one to two weeks before the start of experiments.
D,L-β-Aminoisobutyric acid (BAIBA) was purchased from Sigma-Aldrich. BAIBA has been administered in drinking water at the dose of 100 mg/kg/day or 500 mg/kg/day for 6 weeks, 2 months or 4 months according to the experiments.
The in vivo determination of body fat mass in anesthetized mice has been performed by “DEXA” (Dual Energy X-ray Absorptiometry) (Pietriobelli A., Formica C., Wang Z., Heymsfield S. B., 1996, Am. J. Physiol. 271 (Endocrinol. Metab. 34): E941-E951)). […] It is noteworthy that DEXA also gives for each investigated animal its lean mass that is the total amount of water and proteins (in grams) in the body (excluding the head). Therefore, for a given animal, DEXA allows the determination of the percentage of body fat which is its body fat mass divided by the sum of its body lean and fat masses (fat mass/(lean mass+fat mass)). The “DEXA” apparatus was a Piximus® from Lunar Corporation (Madison, Wis.). Mice were anesthetized thanks to a mixture of xylazine and ketamine.
Procedure 2: the animals were fasted for 48 hours before DEXA measurements which have been performed 2 weeks (T2) and 6 weeks (T6) after starting the treatment. In this procedure, DEXA measurement before the beginning of treatment has not been performed. Comparisons of the different parameters (e.g. fat mass, body weight) between both groups were performed at T2 and at T6.
In a first series of experiments, the effects of 100 mg/kg/day of β-aminoisobutyric acid (BAIBA) on body fat were investigated in Swiss (lean) mice fed with a standard diet (A04 chow) and fasted for 48 hours before DEXA measurements. Mice were 6 to 8 weeks old at the beginning of the experiment. DEXA was performed twice after the initiation of the treatment. In this experiment, BAIBA decreased body fat mass by 31% and 25%, respectively after 2 and 6 weeks of treatment. The results in FIG. 1 indicate that: • after 2 weeks, body fat mass was 2.63±0.23 and 1.80±0.11 grams, respectively in control mice (n=7) and mice receiving BAIBA (n=7); • after 6 weeks, body fat mass was 3.40±0.27 and 2.56±0.32 grams, respectively in control mice and mice receiving BAIBA.

[3] = Plasma glucose, insulin, adiponectin and leptin in lean mice, standard diet, 6 weeks, 48 hours fast; conditions: 100 mg/kg/day 6 weeks, fasted 48 hours
Procedure: Plasma glucose was measured on an automatic analyser (Synchron LX20 from Beckman Coulter) with a commercial kit (kit n°472500 from Beckman).
Plasma insulin, adiponectin and leptin were measured by radioimmunoassay (RIA). Insulin was measured with the Insulin-CT kit from Cis Bio International (Gif-sur-Yvette, France), whereas plasma leptin and adiponectin were assessed with kits from Linco Research Inc. (St Charles, Mo.). Leptin was not measured in ob/ob mice since these animals are genetically leptin-deficient (Friedman J. M., Halaas J. L., 1998, Nature 395: 763-770). Results regarding insulin were expressed as recommended by kit manufacturer.
Glucose, insulin, adiponectine and leptin were assessed in lean mice fed with the standard diet and receiving (13 mice) or not (12 mice) 100 mg/kg/day of β-aminoisobutyric acid in the drinking water for 6 weeks.
At the end of the 6-weeks period of treatment, mice were submitted to a fasting period for 48 hours. Plasma glucose, insulin and adiponectin were not changed in treated mice, but a trend toward lower leptin levels was observed. Indeed, plasma leptin was 3.72±0.59 and 3.14±0.34 ng/ml, respectively in control mice (n=12) and mice treated with β-aminoisobutyric acid (n=13). Leptin is an adipokine mainly secreted by adipose tissue and its plasma levels in human and mice are highly correlated with the whole adipose tissue mass (Friedman J. M. and Hallas J. L., 1998, Nature 395: 763-770). Thus, data regarding plasma leptin are in keeping with the observation that β-aminoisobutyric acid limits body fat accumulation in lean mice.

## CC(CN)C(=O)O (racemic) [BAIBA, D,L-β-Aminoisobutyric acid]
[1]
  plasma total cholesterol: 5.23 ± 0.28 mmol/L
  plasma triglycerides: 2.95 ± 0.21 mmol/L
[2]; after 2 weeks
  decrease of body fat mass: 31%
[2]; after 6 weeks
  decrease of body fat mass: 25%
[2]; 100 mg/kg/day, after 2 and 6 weeks
  body weight vs control mice: not significantly different
[2]; 100 mg/kg/day, after 2 weeks
  body fat mass: 1.80±0.11 grams
[2]; 100 mg/kg/day, after 6 weeks
  body fat mass: 2.56±0.32 grams
[3]
  plasma adiponectin vs control: not changed
  plasma glucose vs control: not changed
  plasma insulin vs control: not changed
  plasma leptin: 3.14 ± 0.34 ng/mL
